Experimental findings from ChEMBL document CHEMBL1201862, “PubChem BioAssay data set” (2004) are described below.

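Each compound was tested at five concentrations against cells in 96-well plates for 48 hours. At the GI50, growth is halved.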 Activity calls are given as the source filed them. Cut-off read from the data, not from the text of the source: active = GI50 up to about 1.1 µM and inactive = higher.

Some test systems named below: M14; SNB-19; CAKI-1; NCI-H23; NCI/ADR-RES; KM12; MOLT-4; RPMI-8226; MDA-MB-435; IGROV-1; 786-0; Hs-578T; U-251; UO-31; NCI-H522; MDA-N; SW-620; RXF 393; TK-10.
Holding throughout (assay): NCI tumour cell line growth inhibition, 48 h

Consider `COc1cc([C@@H]2c3cc(O)c(OC)cc3C=C(C(N)=O)[C@H]2C(N)=O)ccc1O`, for which the GI50 in the test with M14, with SNB-19, in the test on CAKI-1, in the test on NCI-H23, in the test on NCI/ADR-RES and with KM12 was > 100 µM (inactive) in each case. Also, the GI50 with MOLT-4, in the test with RPMI-8226, in the test on MDA-MB-435, in the test with IGROV-1, in the test with 786-0 and in the test with Hs-578T was > 100 µM (inactive) in each case. Further, the GI50 in the test on U-251, in the test on UO-31, with NCI-H522, in the test with MDA-N, in the test with SW-620 and in the test with RXF 393 was > 100 µM (inactive) each time.

With `O=C(Cn1c(C(=O)/C=C/c2ccc(Cl)cc2)nc2ccccc21)c1ccc(Cl)cc1`, the GI50 with M14 is 18.1 µM (inactive); with SNB-19, 20.7 µM (inactive); in the test with NCI-H23 it was 19.5 µM (inactive); in the test on NCI/ADR-RES it was 20.5 µM (inactive); with KM12, 7.26 µM (inactive); in the test on MOLT-4, 2.26 µM (inactive). Moreover, the GI50 was 6.18 µM (inactive) with RPMI-8226; 17.1 µM (inactive) in the test on MDA-MB-435; 30.8 µM (inactive) with TK-10; 16.7 µM (inactive) with IGROV-1; 20.6 µM (inactive) in the test with 786-0; 10.9 µM (inactive) with Hs-578T. In addition, the GI50 with U-251 was 11.5 µM (inactive); in the test on UO-31, 19.8 µM (inactive); in the test with MDA-N, 20.7 µM (inactive); in the test with SW-620 it was 11.4 µM (inactive); in the test on RXF 393, 15.5 µM (inactive).

Consider `CCOc1cc2c(cc1O)/C(=N\OC)C[C@@H]1[C@@H]2CC[C@]2(C)[C@@H](O)CC[C@@H]12`, for which the GI50 in the test with M14 was 0.15 µM (active); with SNB-19, 2.11 µM (inactive); with NCI-H23, 0.324 µM (active); in the test on NCI/ADR-RES it was 0.0319 µM (active); with KM12, 0.423 µM (active); in the test on MOLT-4, 0.255 µM (active). For the same molecule, the GI50 is 0.167 µM (active) with RPMI-8226; 0.0282 µM (active) in the test on MDA-MB-435; > 32.9 µM (inactive) in the test on TK-10; 0.923 µM (active) in the test with IGROV-1; < 0.0403 µM (active) in the test with 786-0; 0.0698 µM (active) with Hs-578T. The GI50 in the test on U-251 was 0.135 µM (active); in the test on UO-31, 0.875 µM (active); in the test with NCI-H522, 0.0288 µM (active); in the test with MDA-N, < 0.0163 µM (active); in the test with SW-620, 0.212 µM (active); in the test with RXF 393, < 0.01 µM (active).

In the case of `COc1cccc(/C=C2\SC(=S)N(/C=C3\C(=O)Oc4ccccc4C3=O)C2=O)c1O`, the GI50 in the test with M14 was 39.4 µM (inactive); in the test with SNB-19, 41.9 µM (inactive); with CAKI-1, 81.1 µM (inactive); in the test on NCI-H23 it was 45.2 µM (inactive); in the test with NCI/ADR-RES it was 41 µM (inactive); in the test on KM12 it was 45.8 µM (inactive). The GI50 with MOLT-4 was 39.1 µM (inactive); in the test with RPMI-8226, 18.8 µM (inactive); in the test with MDA-MB-435, 24.7 µM (inactive); with IGROV-1, 59.2 µM (inactive); with 786-0, 67.8 µM (inactive); in the test with Hs-578T, 25.5 µM (inactive). Besides, the GI50 in the test with U-251 was 31.5 µM (inactive); in the test on UO-31, 22.3 µM (inactive); with NCI-H522 it was 33.3 µM (inactive); with MDA-N, 32.8 µM (inactive); in the test with SW-620 it was 44.1 µM (inactive); in the test with RXF 393 it was 59.4 µM (inactive).

As for `N/N=C(\C(=O)Nc1ccc(Cl)cc1Cl)C(c1cnc2ccccc2n1)[N+](=O)[O-]` (stereo not given), the GI50 in the test with M14, in the test with CAKI-1, in the test on NCI-H23, in the test on NCI/ADR-RES, with KM12 and in the test with RPMI-8226 was > 100 µM (inactive) in each case. Further, the GI50 in the test on MDA-MB-435 was > 100 µM (inactive); in the test with TK-10, > 100 µM (inactive); in the test on IGROV-1, 8.47 µM (inactive); in the test on 786-0 it was > 100 µM (inactive); in the test with Hs-578T it was > 100 µM (inactive); with U-251, > 100 µM (inactive). For the same molecule, the GI50 was 44.2 µM (inactive) in the test on UO-31; > 100 µM (inactive) in the test on NCI-H522; > 100 µM (inactive) in the test with MDA-N; > 100 µM (inactive) in the test on SW-620; > 100 µM (inactive) with RXF 393.

Consider `Cc1occc1/C(S)=N\c1ccc(Cl)c(C(=O)OCC(F)(F)F)c1`, for which the GI50 in the test with M14 is 33.7 µM (inactive); with SNB-19, 20.3 µM (inactive); with CAKI-1, 14.7 µM (inactive); in the test on NCI-H23 it was 19.7 µM (inactive); in the test with NCI/ADR-RES, 17.8 µM (inactive); in the test with KM12 it was 20.8 µM (inactive). Besides, the GI50 was 18.2 µM (inactive) in the test on MOLT-4; 19 µM (inactive) in the test with RPMI-8226; 20.3 µM (inactive) in the test with MDA-MB-435; 20.2 µM (inactive) in the test with TK-10; 18.4 µM (inactive) in the test on IGROV-1; 18.7 µM (inactive) with 786-0. In addition, the GI50 with Hs-578T was 35.6 µM (inactive); in the test with U-251, 19 µM (inactive); in the test on UO-31, 19.4 µM (inactive); in the test on NCI-H522, 20.4 µM (inactive); in the test with MDA-N it was 29 µM (inactive); with SW-620 it was 23.7 µM (inactive).

Consider `COC(=O)[C@H](Cc1ccccc1)NC(=O)c1ccc(CNC(=O)/C=C/c2cccc(Oc3ccccc3)c2)cc1`, for which the GI50 in the test with M14 was 11.9 µM (inactive); with SNB-19, 28 µM (inactive); with CAKI-1, 16.5 µM (inactive); in the test with NCI-H23, 36.7 µM (inactive); in the test with NCI/ADR-RES it was 31.3 µM (inactive); with KM12, 40.8 µM (inactive). Moreover, the GI50 with MOLT-4 was 9.71 µM (inactive); with RPMI-8226, 28.3 µM (inactive); in the test with MDA-MB-435, 5.35 µM (inactive); in the test on TK-10 it was 24.8 µM (inactive); in the test with IGROV-1 it was 7.31 µM (inactive); in the test with 786-0, 17.3 µM (inactive). The GI50 in the test on Hs-578T was 10.4 µM (inactive); with U-251, 18.3 µM (inactive); in the test on UO-31, 26.7 µM (inactive); in the test on MDA-N, 4.16 µM (inactive); with SW-620, 9.98 µM (inactive); with RXF 393, 7.31 µM (inactive).

Consider `CCOP(=O)(OCC)C(N)c1ccc(Cl)cc1` (stereo not given), for which the GI50 in the test on M14, in the test with SNB-19, in the test with CAKI-1, in the test with NCI-H23, with NCI/ADR-RES and in the test with KM12 was > 100 µM (inactive) each time. In addition, the GI50 in the test on MOLT-4, in the test with RPMI-8226, in the test with MDA-MB-435, in the test on TK-10, in the test with IGROV-1 and in the test with 786-0 was > 100 µM (inactive) each time. The GI50 in the test on Hs-578T, with U-251, in the test on NCI-H522, in the test on MDA-N and in the test with SW-620 was > 100 µM (inactive) throughout.

On to `CC(NC(=O)C(N)Cc1ccc(O)cn1)C(=O)O` (stereo not given), for which the GI50 with SNB-19, in the test on CAKI-1, in the test with NCI-H23, in the test on NCI/ADR-RES, with KM12 and in the test with MOLT-4 was > 100 µM (inactive) in each case. Also, the GI50 in the test with RPMI-8226, with MDA-MB-435, with TK-10, with IGROV-1, with 786-0 and in the test on Hs-578T was > 100 µM (inactive) throughout. The GI50 with U-251, with UO-31, in the test with NCI-H522, in the test with MDA-N, in the test with SW-620 and in the test on RXF 393 was > 100 µM (inactive) each time.

Consider `Cc1ccc(OCC2OC(n3cnc4nc(Nc5ccc(Cl)c(Cl)c5)nc(Cl)c43)CC2Oc2ccc(C)cc2)cc1` (stereo not given), for which the GI50 in the test on M14, with SNB-19, in the test with CAKI-1, in the test with NCI-H23, in the test on NCI/ADR-RES and with KM12 was > 100 µM (inactive) throughout. For the same molecule, the GI50 with MOLT-4 is > 100 µM (inactive); in the test on RPMI-8226, > 100 µM (inactive); with MDA-MB-435, > 100 µM (inactive); in the test on TK-10, > 100 µM (inactive); in the test on IGROV-1, 0.855 µM (active); in the test on 786-0, > 100 µM (inactive). In addition, the GI50 in the test on Hs-578T, in the test with U-251, in the test with UO-31, in the test on MDA-N, in the test on SW-620 and in the test on RXF 393 was > 100 µM (inactive) each time.

Consider `Cc1ccc(S(=O)(=O)Nc2nnc(S(N)(=O)=O)s2)cc1`, for which the GI50 in the test with M14, in the test with SNB-19, in the test with CAKI-1, in the test with NCI-H23, in the test with NCI/ADR-RES and with KM12 was > 100 µM (inactive) throughout. The GI50 in the test on MOLT-4, with RPMI-8226, in the test on MDA-MB-435, with TK-10, in the test with 786-0 and in the test on Hs-578T was > 100 µM (inactive) throughout. Also, the GI50 in the test on U-251, in the test on UO-31, in the test with NCI-H522, in the test with MDA-N, in the test on SW-620 and in the test on RXF 393 was > 100 µM (inactive) each time.
